Test results from ChEMBL document CHEMBL1124423, “Synthesis of highly mu and delta opioid receptor selective peptides containing a photoaffinity group” (J Med Chem, 1989).

Key:
[1] = molecular target: Delta-type opioid receptor (Rattus norvegicus, UniProt P33533); assay: Binding potency of compound in competition with [3H]DPDPE for Opioid receptor delta 1 tested in rat brain membrane; format: cell membranes
[2] = molecular target: Mu-type opioid receptor (Rattus norvegicus, UniProt P33535); assay: Binding potency of compound in competition with [3H]CTOP for Opioid receptor mu 1 tested in rat brain membrane; format: cell membranes
Mu-type opioid receptor, sequence (P33535 whole entry): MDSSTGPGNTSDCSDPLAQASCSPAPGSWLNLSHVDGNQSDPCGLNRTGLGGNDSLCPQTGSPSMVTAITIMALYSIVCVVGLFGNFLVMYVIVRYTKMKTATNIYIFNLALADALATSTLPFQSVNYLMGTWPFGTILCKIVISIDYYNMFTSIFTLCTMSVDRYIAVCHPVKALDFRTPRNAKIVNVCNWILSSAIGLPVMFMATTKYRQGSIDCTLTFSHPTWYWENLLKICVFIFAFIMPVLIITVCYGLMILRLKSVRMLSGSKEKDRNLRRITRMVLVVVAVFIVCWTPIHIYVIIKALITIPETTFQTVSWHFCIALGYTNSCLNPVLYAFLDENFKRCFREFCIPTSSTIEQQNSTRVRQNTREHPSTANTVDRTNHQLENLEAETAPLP

[3] = species: Mus musculus; assay: Concentration that reduced the response by 50% by delta selective analogue was assessed in mouse vas deferens assay; NA is no activity at 10e-5 M; format: functional
[4] = species: Cavia porcellus; assay: Inhibition of response by delta receptor selective analogue at 300 nM was assessed in Guinea pig ileum assay; format: functional
[5] = species: Cavia porcellus; assay: Inhibition of response by delta receptor selective analogue at 10000 nM was assessed in Guinea pig ileum assay; format: functional
[6] = species: Cavia porcellus; assay: Affinity of mu receptor selective analogue in Guinea pig ileum assay expressed as pA2; format: functional; details: read-out: pA2 (converted)
[7] = species: Mus musculus; assay: Concentration that reduced the response by 50% by delta receptor selective analogue was assessed in mouse vas deferens assay; NA is no activity at 10e-5 M; format: functional
[8] = molecular target: Opioid receptors; mu & delta (Homo sapiens) (UniProt P41143+P35372); assay: Selectivity ratio for binding to mu vs delta opioid receptor; format: protein assay
Opioid receptors; mu & delta (Homo sapiens), sequence (P35372 whole entry, looked up): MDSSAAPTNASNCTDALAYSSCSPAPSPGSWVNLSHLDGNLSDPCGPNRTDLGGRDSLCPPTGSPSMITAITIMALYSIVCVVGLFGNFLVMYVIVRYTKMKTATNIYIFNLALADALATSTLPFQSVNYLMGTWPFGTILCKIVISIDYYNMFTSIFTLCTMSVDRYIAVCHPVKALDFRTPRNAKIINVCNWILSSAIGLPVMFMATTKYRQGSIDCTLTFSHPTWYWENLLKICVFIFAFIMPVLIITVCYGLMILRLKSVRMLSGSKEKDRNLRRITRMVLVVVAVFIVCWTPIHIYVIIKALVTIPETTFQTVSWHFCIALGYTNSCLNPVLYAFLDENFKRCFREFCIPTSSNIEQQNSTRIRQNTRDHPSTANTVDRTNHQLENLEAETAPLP
Opioid receptors; mu & delta (Homo sapiens), sequence (P41143 whole entry, looked up): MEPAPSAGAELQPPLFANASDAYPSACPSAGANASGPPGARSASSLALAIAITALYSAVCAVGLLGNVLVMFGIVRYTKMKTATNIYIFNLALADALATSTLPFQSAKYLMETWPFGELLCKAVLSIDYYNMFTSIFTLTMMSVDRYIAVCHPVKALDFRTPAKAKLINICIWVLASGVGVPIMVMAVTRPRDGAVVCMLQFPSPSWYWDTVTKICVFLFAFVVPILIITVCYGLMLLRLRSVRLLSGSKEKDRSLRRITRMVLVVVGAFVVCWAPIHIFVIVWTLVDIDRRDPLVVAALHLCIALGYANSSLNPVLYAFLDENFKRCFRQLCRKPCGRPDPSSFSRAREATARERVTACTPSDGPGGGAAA

[9] = species: Cavia porcellus; assay: Inhibition of response by delta receptor selective analogue at 3000 nM was assessed in Guinea pig ileum assay; format: functional
[10] = species: Mus musculus; assay: Concentration that reduced the response by 50% by delta selective analogue was assessed in mouse vas deferens assay; format: functional
[11] = species: Cavia porcellus; assay: Concentration that reduced the response by 50% by delta receptor selective analogue was assessed in Guinea pig ileum assay; format: functional

Delta-type opioid receptor, sequence (P33533 whole entry): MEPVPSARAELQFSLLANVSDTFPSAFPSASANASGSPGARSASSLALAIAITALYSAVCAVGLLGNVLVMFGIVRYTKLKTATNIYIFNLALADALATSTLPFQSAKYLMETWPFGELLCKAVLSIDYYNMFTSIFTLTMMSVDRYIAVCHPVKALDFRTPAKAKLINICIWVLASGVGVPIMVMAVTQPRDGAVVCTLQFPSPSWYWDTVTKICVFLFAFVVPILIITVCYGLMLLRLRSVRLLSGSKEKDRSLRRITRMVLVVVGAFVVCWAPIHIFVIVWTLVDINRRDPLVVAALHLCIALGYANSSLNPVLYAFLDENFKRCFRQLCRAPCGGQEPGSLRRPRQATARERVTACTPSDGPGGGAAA

Compound: C[C@@H](O)[C@H](NC(=O)[C@H]1NC(=O)[C@H]([C@@H](C)O)NC(=O)[C@H](CCCCN)NC(=O)[C@@H](Cc2c[nH]c3ccccc23)NC(=O)[C@H](Cc2ccc(N=[N+]=[N-])cc2)NC(=O)[C@@H](NC(=O)[C@H](N)Cc2ccccc2)CSSC1(C)C)C(N)=O [listing 1 of 2 here]
- IC50 [1]: 20 µM
- IC50 [2]: 0.049 µM
- IC50 [3]: Not Active

Compound: C[C@@H](O)[C@H](NC(=O)[C@H]1NC(=O)[C@H]([C@@H](C)O)NC(=O)[C@H](CCCCN)NC(=O)[C@@H](Cc2c[nH]c3ccccc23)NC(=O)[C@H](Cc2ccc(N=[N+]=[N-])cc2)NC(=O)[C@@H](NC(=O)[C@H](N)Cc2ccccc2)CSSC1(C)C)C(N)=O [listing 2 of 2 here]
- inhibition at 0.3 µM [4]: 8%

Compound: CC1(C)SSC(C)(C)[C@@H](NC(=O)[C@@H](N)Cc2ccc(O)cc2)C(=O)NCC(=O)N[C@@H](Cc2ccc(N=[N+]=[N-])cc2)C(=O)N[C@H]1C(=O)O [listing 1 of 2 here]
- inhibition at 10 µM [5]: 6%

Compound: C[C@@H](O)[C@H](NC(=O)[C@H]1NC(=O)[C@H]([C@@H](C)O)NC(=O)[C@H](CCCCN)NC(=O)[C@@H](Cc2c[nH]c3ccccc23)NC(=O)[C@H](Cc2ccc(O)cc2)NC(=O)[C@@H](NC(=O)[C@H](N)Cc2ccccc2)CSSC1(C)C)C(=O)O
- Kb [6]: 0.0794 µM
- IC50 [7]: Not Active
- IC50 [1]: 8.4 µM
- IC50 [2]: 0.003 µM

Compound: C[C@@H](O)[C@H](NC(=O)[C@@H]1NC(=O)[C@H]([C@@H](C)O)NC(=O)[C@@H](CCCCN)NC(=O)[C@@H](Cc2c[nH]c3ccccc23)NC(=O)[C@@H](Cc2ccc(N)cc2)NC(=O)[C@H](NC(=O)[C@@H](N)Cc2ccccc2)CSSC1(C)C)C(N)=O
- Ratio [8]: > 20

Compound: C[C@@H](O)[C@H](NC(=O)[C@H]1NC(=O)[C@H]([C@@H](C)O)NC(=O)[C@H](CCCCN)NC(=O)[C@@H](Cc2c[nH]c3ccccc23)NC(=O)[C@H](Cc2ccc(N)cc2)NC(=O)[C@@H](NC(=O)[C@H](N)Cc2ccccc2)CSSC1(C)C)C(N)=O [listing 1 of 2 here]
- inhibition at 3 µM [9]: 5%

Compound: C[C@@H](O)[C@H](NC(=O)[C@H]1NC(=O)[C@H]([C@@H](C)O)NC(=O)[C@H](CCCCN)NC(=O)[C@@H](Cc2c[nH]c3ccccc23)NC(=O)[C@H](Cc2ccc(N)cc2)NC(=O)[C@@H](NC(=O)[C@H](N)Cc2ccccc2)CSSC1(C)C)C(N)=O [listing 2 of 2 here]
- IC50 [1]: > 10 µM
- IC50 [2]: 0.5 µM
- IC50 [3]: Not Active

Compound: C[C@@H](O)[C@H](NC(=O)[C@@H]1NC(=O)[C@H]([C@@H](C)O)NC(=O)[C@@H](CCCCN)NC(=O)[C@@H](Cc2c[nH]c3ccccc23)NC(=O)[C@@H](Cc2ccc(N=[N+]=[N-])cc2)NC(=O)[C@H](NC(=O)[C@@H](N)Cc2ccccc2)CSSC1(C)C)C(N)=O
- Ratio [8]: 412

Compound: CC1(C)SSC(C)(C)[C@@H](NC(=O)[C@@H](N)Cc2ccc(O)cc2)C(=O)NCC(=O)N[C@@H](Cc2ccccc2)C(=O)N[C@H]1C(=O)O
- IC50 [10]: 0.0043 µM

Compound: C[C@@H](O)[C@H](NC(=O)[C@@H]1NC(=O)[C@H]([C@@H](C)O)NC(=O)[C@@H](CCCCN)NC(=O)[C@@H](Cc2c[nH]c3ccccc23)NC(=O)[C@@H](Cc2ccc(O)cc2)NC(=O)[C@H](NC(=O)[C@@H](N)Cc2ccccc2)CSSC1(C)C)C(=O)O
- Ratio [8]: 3230

Compound: CC1(C)SSC(C)(C)[C@@H](NC(=O)[C@@H](N)Cc2ccc(O)cc2)C(=O)NCC(=O)N[C@@H](Cc2ccc(N)cc2)C(=O)N[C@H]1C(=O)O
- IC50 [11]: > 10 µM
- IC50 [10]: 0.138 µM

Compound: CC1(C)SSC(C)(C)[C@@H](NC(=O)[C@@H](N)Cc2ccc(O)cc2)C(=O)NCC(=O)N[C@@H](Cc2ccc(N=[N+]=[N-])cc2)C(=O)N[C@H]1C(=O)O [listing 2 of 2 here]
- IC50 [10]: 0.0095 µM
